Tested on: Human liver cancer-derived cell line (HuH-7)
Assay: miRNA released into serum-free culture medium from HuH-7 cells treated with carbon tetrachloride (real-time PCR)
Format: cell-based
Details: carbon tetrachloride 0-1000 μM, 7-day culture in serum-free maintenance medium, FIG. 2
Protocol: Human liver cancer-derived cell line (HuH-7, purchased from ATCC) was seeded in a culture vessel of 12-well culture plate at a cell density of 20000 cells/cm^2, and cells were cultured for 7 days in a serum-free maintenance medium containing carbon tetrachloride, which was known to injure liver tissue and liver cells, at a relatively low concentration of 0-1000 μM used in World J Gastroenterol. 2008 Jun. 21; 14(23):3693-709. The maintenance medium used herein was the same as one used in Example 1.
Each culture medium was collected after 7-day culturing, and cells were removed by filtration through a 0.22 μm filter to obtain samples.
cDNA samples of Poly(A)miRNA samples were obtained in the same manner as in Example 1.
Real-time PCR was carried out using Platinum SYBR Green (produced by Invitrogen) to measure hsa-miR-21, hsa-miR-122, hsa-miR-451 and hsa-miR-16 contained in the cDNA samples. The primers used were as follows.

Q: For `ClC(Cl)(Cl)Cl` [carbon tetrachloride], which “amount of miRNA released from cells into culture medium (hsa-miR-21, hsa-miR-122, hsa-miR-451, hsa-miR-16)” value is on record?
A: increased

— patent publication US20120178085A1, “METHOD FOR EVALUATION OF CULTURED CELLS, AND METHOD FOR SCREENING OF BIOMARKER” (priority 2009, published 2012)
